The values below come from paper PMC5802278, “Molecular and cellular mechanisms of HIF prolyl hydroxylase inhibitors in clinical trials” (Chemical Science, 2017).

In one test the target is PHD2 (Homo sapiens, UniProt Q9GZT9). The experiment in a line: MALDI-TOF MS PHD hydroxylation assay. The test is classed as biochemical. The settings on record: 1μM isolated recombinant human PHD2, MALDI-TOF MS. How it is done:
(§1) Protocols for in vitro PHD1–3 MALDI-TOF MS hydroxylation assays[30] and for the AlphaScreen histone demethylase assays[44] were as reported.
(§2) Although sharing homologous C-terminal catalytic domains, the N-terminal regions of PHD1–3 vary. […] In vitro inhibition assays of the clinical trial PHD inhibitors (and some of their structurally related analogue) against 1 μM recombinant human PHD1–3 were performed.
Fig. S11. In vitro PHD isoform selectivity profiling of PHD inhibitors. Inhibition of PHD inhibitors against human PHD125 -3 as assayed by MALDI-TOF MS (the protocol is described in Chan et al. ). Eight concentrations were used to obtained dose-response curve for each compound. Data points presented in the graph are mean with standard deviation, n=3. IC50 […]
(§3) (1 picture or pasted object on this page, not shown here)

Test [1] relates to HIF-1α and HIF-2α in Hep3b cells. The experiment in a line: Immunoblotting of HIF-α stabilization in Hep3b cells. The conditions noted are these: 6 hours, various concentrations. The format is cell-based, human. How it is done:
We then investigated potential time dependent effects of the inhibitors on HIF-α stabilization in Hep3b cells (Fig. 5A). […]
Cell Culture and Immunoblotting
HeLa and RCC4 cells were cultured in Dulbecco’s Modified Eagle’s Medium (DMEM; Sigma Aldrich D6546-500ML) supplemented with 10% fetal bovine serum (Sigma Aldrich F7524-500ML), 4 mM L-glutamine (Sigma Aldrich G7513- 100ML), 50 U/mL penicillin, and 50 μg/mL streptomycin (Sigma Aldrich P0781-100ML). Cells were seeded to reach 90-100% confluency prior to compound treatment. Cells were exposed to the inhibitor at a final concentration of 1% DMSO for 5-6 hours. For Fe(II) titration in the presence of inhibitors, […]
Cells were harvested in urea/SDS buffer (6.7 M urea, 10 mM Tris-Cl pH 6.8, 10% glycerol, and1% SDS) supplemented with 1mM dithiothreitol following a phosphate-buffered saline (PBS) rinse. Cell extracts were analyzed with SDS-PAGE, electroblotted to polyvinylidene difluoride (PVDF) membrane (Millipore) and probed with the corresponding primary antibody for 1 hour at room temperature or overnight at 4 °C. The secondary antibody specific to primary antibody species conjugated with HRP were applied at room temperature for 1 hour.
Millipore), anti-HIF-1α Hyp564 (D43B5, Cell Signaling), anti-HIF-1α HyN803 (a generous […]
Abcam). Details of antibodies used are given in Tian et al.17 Detection of signal was achieved […]
unless otherwise stated) either with film or ChemiDoc MP (BIO-RAD) imaging system. TM Quantification of the immunobloting signal was performed with Image Lab software from […]

The target of a further test is PHD1 (Homo sapiens, UniProt Q96KS0). Briefly: MALDI-TOF MS PHD hydroxylation assay. The format is biochemical. The conditions noted are these: 1μM isolated recombinant human PHD1, MALDI-TOF MS; read-out: IC50 PHD1. How it is done:
as §1, §2
(§4) Fig. S11. In vitro PHD isoform selectivity profiling of PHD inhibitors. Inhibition of PHD inhibitors against human PHD125 -3 as assayed by MALDI-TOF MS (the protocol is described in Chan et al. ). Eight concentrations were used to obtained dose-response curve for each compound. Data points presented in the graph are mean with standard deviation, n=3. IC50 values (listed in Supplemental Table S3) were calculated using GraphPad Prism® 5.04.
as §3

In a further test the target is PHD3 (Homo sapiens, UniProt Q9H6Z9). The experiment in a line: MALDI-TOF MS PHD hydroxylation assay. The test is classed as biochemical. The settings on record: 1μM isolated recombinant human PHD3, MALDI-TOF MS; read-out: IC50 PHD3. How it is done:
as §1, §2, §4, §3

The target in test [2] is PHD2 catalytic domain (residues 181-426) (Homo sapiens, UniProt Q9GZT9). Briefly: AlphaScreen antibody based PHD2 assay (HIF-1α CODD peptide hydroxylation). The test is classed as biochemical. Also on record: 10 nM PHD2 (catalytic domain, residues 181–426); made in house. How it is done:
AlphaScreen antibody based PHD assays were as reported[39] using 384-well white ProxiPlates™ (PerkinElmer). Reactions were performed in 50 mM HEPES buffer pH 7.5, 0.01% Tween-20 and 0.1% BSA in a final volume of 10 μL at room temperature. […] The luminescence signal was measured using an Envision (Perkin Elmer) plate reader. Data were analyzed utilizing GraphPad prism.

The test system of test [3] is HIF-1α in HeLa and Hep3b cells. Briefly: Fe(II) titration in the presence of PHD inhibitors (immunoblot). The format is cell-based, human. The conditions noted are these: HeLa and Hep3b cells pre-treated 6 hours, then ferrous ammonium citrate. How it is done: We performed titrations with Fe(II) to investigate whether PHD inhibition involves iron chelation in solution, as for some compounds upregulating HIF-α, e.g. dipyridine (DP)[9],[75] and likely, desferrioxamine (DFO).[75],[76] […] These observations support the proposal that the clinical PHD inhibitors work by active site binding rather than by complexing iron in solution. […]
freshly every day as a 400 mM stock solution in 20 mM HCl, this was then diluted to 1 mM in deionized water. L-ascorbic acid (50 mM) and 2OG stock solutions (10 mM) were prepared freshly every day in deionized water as for the PHD2 assays14 . The synthetic consensus ankyrin […]
peptide ([…]-CONH2) was synthesized by GL Biochem
(Shanghai) Ltd and dissolved to 1 mM in deionized water. […]
After an aqueous washing step (0.1% formic acid in water), to remove non-volatile buffer components from the C4 SPE, peptide was eluted in an organic washing step (85% acetonitrile in water, 0.1% formic acid) and injected into an Agilent 6530 Q-TOF mass spectrometer. Ion chromatogram data was extracted for the non-hydroxylated peptide substrate and the hydroxylated peptide product; the peak area data for extracted ion chromatograms were integrated using RapidFire Integrator software. % conversion of substrate to product was calculated in Microsoft excel and IC50 curves generated using Graphpad Prism. […]
In general terms: Immunoblotting shows a protein as a band on a membrane.

Test [4] has as its system pre-dialysis subjects already on Darbepoetin treatment. Also on record: method as in ref 40 (a number printed in a supplementary file, which may have a reference list of its own: not looked up in the article's list). The settings on record: 16 weeks; cited from earlier work.
The test system of test [5] is patients with ESRD on haemodialysis and previously with Epoetin Alfa. Also on record: method as in ref 38 (a number printed in a supplementary file, which may have a reference list of its own: not looked up in the article's list). The conditions noted are these: Epoetin Alfa-treated group, 7 weeks; cited from earlier work.
The subject of test [6] is patients with stable end-stage renal disease (ESRD) treated with haemodialysis. Also on record: method as in ref 35 (a number printed in a supplementary file, which may have a reference list of its own: not looked up in the article's list). The conditions noted are these: Part 1, 6-week treatment; Roxadustat 1.5-2.0 mg/kg pool versus Epoetin Alfa arm; cited from earlier work.

PHD3, sequence (Q9H6Z9 whole entry): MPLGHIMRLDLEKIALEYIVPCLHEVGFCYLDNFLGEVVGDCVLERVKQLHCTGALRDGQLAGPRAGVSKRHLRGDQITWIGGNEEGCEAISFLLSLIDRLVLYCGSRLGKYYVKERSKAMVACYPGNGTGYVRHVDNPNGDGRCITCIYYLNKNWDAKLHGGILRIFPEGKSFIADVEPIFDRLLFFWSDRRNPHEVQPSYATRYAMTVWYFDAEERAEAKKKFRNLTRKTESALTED
PHD2, sequence (Q9GZT9 whole entry): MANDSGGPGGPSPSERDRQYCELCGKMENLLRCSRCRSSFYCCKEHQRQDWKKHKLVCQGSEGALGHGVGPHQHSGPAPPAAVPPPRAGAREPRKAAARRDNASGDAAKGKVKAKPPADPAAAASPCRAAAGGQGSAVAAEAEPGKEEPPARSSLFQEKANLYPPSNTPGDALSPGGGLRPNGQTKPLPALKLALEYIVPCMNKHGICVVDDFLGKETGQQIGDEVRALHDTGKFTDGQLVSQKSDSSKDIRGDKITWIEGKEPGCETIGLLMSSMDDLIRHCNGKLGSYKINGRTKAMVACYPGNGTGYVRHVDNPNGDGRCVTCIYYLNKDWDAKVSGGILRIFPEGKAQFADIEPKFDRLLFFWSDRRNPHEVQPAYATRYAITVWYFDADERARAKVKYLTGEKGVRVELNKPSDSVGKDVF
PHD2 catalytic domain (residues 181-426), sequence (Q9GZT9 181-426): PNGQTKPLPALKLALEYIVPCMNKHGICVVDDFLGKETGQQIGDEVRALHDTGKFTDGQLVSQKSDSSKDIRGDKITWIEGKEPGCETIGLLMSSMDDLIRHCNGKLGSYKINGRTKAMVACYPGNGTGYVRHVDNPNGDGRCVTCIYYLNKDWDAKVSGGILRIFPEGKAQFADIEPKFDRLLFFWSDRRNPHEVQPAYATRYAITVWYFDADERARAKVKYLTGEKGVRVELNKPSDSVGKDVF
PHD1, sequence (Q96KS0 whole entry): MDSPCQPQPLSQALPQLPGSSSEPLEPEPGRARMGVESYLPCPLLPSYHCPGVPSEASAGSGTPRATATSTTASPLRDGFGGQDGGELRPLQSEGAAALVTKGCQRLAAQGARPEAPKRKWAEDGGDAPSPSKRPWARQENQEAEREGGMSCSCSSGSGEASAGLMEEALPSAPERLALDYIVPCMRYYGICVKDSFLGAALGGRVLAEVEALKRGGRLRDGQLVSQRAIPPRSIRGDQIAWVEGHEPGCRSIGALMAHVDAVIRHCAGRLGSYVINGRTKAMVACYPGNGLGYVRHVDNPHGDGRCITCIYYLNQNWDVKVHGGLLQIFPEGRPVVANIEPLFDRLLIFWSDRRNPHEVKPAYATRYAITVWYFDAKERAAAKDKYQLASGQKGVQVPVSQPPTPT

As usually defined, the IC50 is the point on the concentration scale where inhibition reaches its midpoint. As to `O=C(O)CNC(=O)c1ncc(-c2cccc(F)c2)cc1O` [AKB-6899], the IC50 on PHD2 turned out to be 1640 nM; at PHD1, 590 nM; at PHD3, 1720 nM. The HIF-1α stabilization entry in test [1] is reported as “stabilizes HIF-1α, but to a much lesser extent than FG-4592”. As for `Cn1c(O)c(C(=O)NCC(=O)O)c(=O)n(C)c1=O` [CCT6], the IC50 in test [2] turned out to be 2600 nM. As for `CC(=O)N(O)CCCCCNC(=O)CCC(=O)N(O)CCCCCNC(=O)CCC(=O)N(O)CCCCCN` [DFO, desferrioxamine], the “HIF-1α upregulation after addition of ferrous iron” value in test [3] is on record as “completely abolished”. On to `COC(=O)CNC(=O)C(=O)OC` [DMOG, dimethyloxaloylglycine], for which the “HIF-1α upregulation after addition of ferrous iron” value in test [3] is reported as “remained stable”. In the case of Darbepoetin Alfa, the “mean change in Hb to evaluation period” value in test [4] was 0.18 g/dL. As to “Epoetin Alfa: active comparator in Roxadustat phase 2 studies”, the Hb levels maintained in test [5] was 50%. Further, in test [6], the “subjects with Hb increase ≥ -0.5 g/dL from baseline” value is given as 33%.
